Laboratory results from patent US20250073337A1, “NOVEL SKIN-PERMEABLE PEPTIDE, COMPOSITION INCLUDING THE SAME FOR SKIN AND MUCOUS MEMBRANE, AND USE THEREOF” (CELLICON LAB INC., priority 2022, published 2025).

Key:
[1] = system: actual human skin; details: mixture of peptide and caffeine vs caffeine alone, measured over time; FIG. 2
Experimental: A mixture of the skin-permeable peptide of SEQ ID NO: 8 and caffeine or caffeine alone was treated to evaluate skin permeability thereof.
In detail, Franz diffusion cell assay was performed using actual human skin as in Example 1, and the permeation amount of caffeine was measured by HPLC and then compared (FIG. 2).

[2] = system: human skin; details: mixed with peptide vs treated alone; FIG. 3
Experimental: The FITC conjugation method was performed in accordance with the manufacturer's instructions by purchasing an FITC conjugation kit (Lightning-Link® (ab188285)) from Abcam (Cambridge, MA, USA).

[3] = system: human skin; details: mixture of peptide and fluorescein liposome (180 nm) vs liposome alone, 3 hours; FIG. 4
Experimental: Aqueous solutions were then obtained through Franz diffusion cell assay, and FITC fluorescence values were analyzed using a fluorescence microplate reader (SpectraMax i3, Molecular Devices, USA).
Fluorescein was liposomized using a liposome kit purchased from Sigma Aldrich (MO, USA) and liposomizing Fluorescein was used as liposome for the skin permeability tests.

[4] = system: HDF cells; test: Collagen production in HDF cells (Collagen type I ELISA); type: cell-based; details: mixture of peptide and KTTKS peptide vs KTTKS alone, 48 hours; FIG. 5
Experimental: In order to examine the efficacy improvement of the bioactive material due to the skin permeation effect of the active ingredient by the peptide of SEQ ID NO: 8, HDF cells were treated with a mixture of KTTKS peptide, which is a bioactive material, and the peptide of SEQ ID NO: 8, or treated with KTTKS peptide alone, and collagen production amounts were analyzed using an ELISA assay.
HDF cells used in this experiment were purchased from Thermo Fisher Scientific (Waltham, MA, USA). HDF cells were cultured in Dulbecco's Modified Eagle's Medium (DMEM) supplemented with 10% fetal bovine serum (FBS), 100 U/mL penicillin, and 100 μg/mL streptomycin (Gipco, Life Technologies, Grand Island, NY, USA) and cultured in a 5% CO2 incubator at 37° C.
HDF cells at a density of 2×10^5 cells/mL were dispensed in a volume of 250 μL in 48 wells and allowed to stabilize for 24 hours. Samples were treated at different concentrations and cultured in a CO2 incubator for 48 hours, and then each culture was obtained. […] 100 μL of TMB substrate was dispensed therein, left in the dark for 30 minutes, and treated with 50 μL of a stop solution, and then absorbance was measured at 450 nm with a microspectrophotometer (Molecular Device, Sunnyvale, CA, USA).

[5] = system: real human skin; details: mixture of peptide and lidocaine, 2 mM sample, 6 hours; compared with known peptide (TAT) and with lidocaine alone; FIG. 1
Experimental: A mixture of skin-permeable peptides consisting of any one amino acid sequence selected from SEQ ID NO: 5 to SEQ ID NO: 8 and derivatives thereof of SEQ ID NO: 1 to SEQ ID NO: 4, or the known peptide and lidocaine, or lidocaine alone was treated to evaluate skin permeability.
In detail, to evaluate the skin permeability, real human skin was used and the skin permeability was measured by a Franz diffusion cell assay, and the permeation amount of lidocaine was measured by HPLC and then compared.
Human skin used in this experiment was purchased from UMC Science Co., Ltd., Korea, and phosphate-buffered saline (PBS, Gibco, USA) was purchased from Sigma-Aldrich. […]
The temperature of the receptor fluid was maintained constant at 32° C.±1° C., and the humidity was maintained at 30-70%, followed by stabilization for 30 minutes. […] 6 hours later, sampling was performed through a sampling arm of the receptor, and for quantification, STD (100 μM standard sample) and the sample were analyzed through HPLC, and the permeability was expressed as a percentage (%) as compared to STD.

Question: With “H-RKLFRKILKYLR-OH [SEQ ID NO: 8, H2N-[Arg-Lys-Leu-Phe-Arg-Lys-Ile-Leu-Lys-Tyr-Leu-Arg]-CO2H]” as the substance, how does the “skin permeation amount of caffeine” value [1] read?
Answer: The value was “significantly superior”.

Question: And the “skin permeability effect of 3 kDa FITC-conjugated collagen” value [2]?
Answer: The value was “strong skin permeability effects”.

Question: What about the “skin permeability effect of 30 kDa FITC-conjugated collagen” value [2] of the same substance?
Answer: Its value is “strong skin permeability effects”.

Question: And the “skin permeability effect of 300 kDa FITC-conjugated collagen” value [2]?
Answer: Its value is “strong skin permeability effects”.

Question: What about the “skin permeability effect of 800 kDa hyaluronic acid (HA)” value [2] of the same substance?
Answer: The value was “strong skin permeability effects”.

Question: And the “skin permeation effect of the liposome” value [3]?
Answer: The value was “remarkably increased”.

Question: And the “production amount of collagen” value [4]?
Answer: The value was “significantly increased”.

Question: What about the “skin permeation amount of lidocaine” value [5] of the same substance?
Answer: The value was “highest effect”.
